Laboratory results reported in paper PMC11773474, “Roles for Prlhr/GPR10 and Npffr2/GPR74 in feeding responses to PrRP” (Molecular Metabolism, 2025).

Columns and labels:
[1] = Pharmacokinetics: clearance of p52 from the blood of mice; assay type: in vivo, mouse; settings: LC-MS, n=6/group
Procedure: Supplemental Figure 2 . Quality analysis, in v itro potency, and clearance from the blood of mice for p52. A Analytical RP-HPLC spectrum for p52 was recorded using an Agilent 1260 Infinity system. B Spectrographic data from the analysis of purified p52 by single quadrupolar LC/MS using a Waters Mass Lynx 3100 platform. C Peptide in vitro potencies determined in CHO cells transfected with mouse GPR10 or GPR74 receptor.
For GPR74 potency was determined for peptide mediated inhibition of forskolin stimulated cAMP accumulation, as described (48). For GPR10 potency was determined in calcium mobilization assay in cells incubated with FLuo- 4AM calcium assay kit and measured on a FLIPR TETRA (Molecular Devices, Sunnyvale, CA). Shown are log(1/EC50) (1/nM) values for cAMP generation via GRP10 and GPR74 for p52, PrRP-31, and NPFF. ND- not detected. D Mice were injected with the indicated doses of p52.
Blood was drawn at the indicated times after dosing and p52 was quantified by LC-MS.
Shown are mean +/- STD; individual measurements are shown, as well; n=6/group. ND - […]
(1 picture or pasted object on this page, not shown here)

GPR147 = settings: cited from earlier work
From the text: Thus, PrRP analogs like p52 might act via GPR147 to decrease food intake. It is not clear whether p52 and other PrRP analogs can suppress food intake via GRP10 and/or GPR74 in the absence of GPR147, but it would be interesting to assess this possibility, as well as potential roles for each of these rece ...

Compound | p52 detectable in the circulation for at least 4 h ([1]; dose 1.5 mg/kg) | time p52 remained detectable in the circulation ([1]; dose 5 mg/kg) | affinity for GPR147 (GPR147)
CCCCCCCCCCCCCCCC(=O)N[C@@H](CO)C(=O)N[C@@H](CCCNC(=N)N)C(=O)N[C@H](C(=O)N[C@@H](Cc1c[nH]cn1)C(=O)N[C@@H](CCCNC(=N)N)C(=O)N[C@@H](Cc1c[nH]cn1)C(=O)N[C@@H](CO)C(=O)N[C@@H](CCCC)C(=O)N[C@@H](CCC(=O)O)C(=O)N[C@H](C(=O)N[C@@H](CCCNC(=N)N)C(=O)N[C@H](C(=O)N1CCC[C@H]1C(=O)N[C@@H](CC(=O)O)C(=O)N[C@H](C(=O)N[C@@H](CC(N)=O)C(=O)N1CCC[C@H]1C(=O)N[C@@H](C)C(=O)N[C@@H](Cc1c[nH]c2ccccc12)C(=O)N[C@@H](Cc1ccc(O)cc1)C(=O)N[C@@H](C)C(=O)N[C@@H](CO)C(=O)N[C@@H](CCCNC(=N)N)C(=O)NCC(=O)N[C@H](C(=O)N[C@@H](CCCNC(=N)N)C(=O)N1CCC[C@H]1C(=O)N[C@H](C(=O)NCC(=O)N[C@@H](CCCNC(=N)N)C(=O)N[C@@H](Cc1ccc([N+](=O)[O-])cc1)C(N)=O)C(C)C)[C@@H](C)CC)[C@@H](C)CC)[C@@H](C)O)[C@@H](C)CC)[C@@H](C)O [p52] | not | at least 4 h | –
prolactin releasing peptide [PrRP] | – | – | measurable (albeit low) affinity
